Results as given in patent US20070196514A1, “Prostate cancer treatment with glycogen synthase kinase-3beta inhibitors” (priority 2006, published 2007).

Tests used:
LNCaP cells = assay: Affymetrix cDNA microarray for LiCl-induced changes; type: cell-based, human
Experimental: Genechip® arrays (Affymetrix Inc, Santa Clara, Calif.) used herein contain almost 45,000 probe sets representing more than 39,000 transcripts derived from approximately 33,000 well substantial human genes. The in vitro-transcription labeling is conducted using the EnzoBio array high yield RNA transcript labeling kit (Affymetrix). Ten micrograms of total RNAs were used for the first strand cDNA synthesis using the SuperscriptChoice system (Invitrogen).
Genechips were hybridized for 16 hours at 45° C. and 60 rpm in Genechip hybridization oven Model 640. After washing the Genechip, the signal intensity was detected using the Agilent Gene Array scanner.
This example investigated the genes that are altered by GSK-3β inhibition. This approach started with a genome-wide screening of gene expression with cDNA Microarray to identify the altered genes, which was verified by RT-PCR and Western blot at mRNA and protein levels, respectively. After sequestered in serum-free media for 24 hours, LNCaP cells were left untreated or treated with LiCl in a full culture media for 18 hours. The total cellular RNAs were extracted from the cells for cDNA Microarray analysis.

AR-null PC-3 xenografts = assay: mouse xenograft model, protocol A; type: in vivo, nude mice; conditions: LiCl 2 mg/kg i.p. daily
Experimental: All animal studies were conducted under an approved Institutional Animal Care and Use Committee protocol. Single cell suspensions (2×10^6 cells in 0.1 ml of RPMI1640 medium plus 10% FBS) were inoculated subcutaneously (s.c.) into the rear flanks (two sites/mouse) of 6 to 7 weeks old male nude mice (Charles River, Wilmington, Mass.). For protocol A, mice were randomly divided into two groups (5 animals each). On next day after inoculation, one group of animals received i.p. injection of LiCl at a daily dose of 2 mg/kg body weight. LiCl was dissolved in PBS. The control groups of animals received PBS alone in the same volume. Xenograft development and growth were monitored for 8 weeks. The tumor dimensions were measured twice a week. The tumor volume was calculated by the formula of L×W×H×0.5236 (Miyake 2001). At the end of treatment, xenograft tumors were extirpated, and the final tumor size and weight, as well as animal weight were measured. For protocol B, treatment began until tumor became palpable or 50 mm^3 in size, and LiCl or PBS was injected (5 animals each group) as above for a two-week course. Tumor size and weight were measured at the end of treatment. For BrdU in vivo labeling, the animals were injected i.p. with 0.5 ml of a 10-mM BrdU solution (Invitrogen) 2 hours before sacrifice. For experiments involving LNCaP-BclxL SB216763 subline cells (Liao 2005) were inoculated as above, and SB216763 treatment was started two weeks later when palpable xenografts were established. The SB216763 for animal use was purchased from Biomol (Plymouth Meeting, Pa.) and dissolved in a formula containing 50% N,N-dimethylacetamide (“DMA”), 45% polyethylene glycol 400 (“PEG-400”) and 5% Tween-80. SB216763 (2 mg/kilogram/bodyweight) or the solvent in 20 μl volume was injected i.p. three times a week. Tumor growth was monitored as discussed herein.
This example investigated GSK-3β inhibitor-induced suppression of cancer cell growth in vivo. A mouse xenograft model was used to examine the effect of GSK-3β inhibitor on tumor growth in two different strategies (protocol A and B). In both protocols, LiCl was delivered at a daily dose i.p. of 2 mg/kg of body weight. This dose level is more than 100-fold lower than a therapeutic dose for mental diseases in mouse (Noble 2005) or human (Moore 2002).
In protocol A, LiCl treatment was started on the same day when AR-null PC-3 cancer cells were inoculated into animals. AR-null PC-3 xenografts were developed around 4 weeks after inoculation in PBS-treated control animals.

PC-3 xenografts = assay: mouse xenograft model, protocol B (palpable tumors), with in vivo BrdU labeling and TUNEL; design: species or system nude mice
Experimental: All animal studies were conducted under an approved Institutional Animal Care and Use Committee protocol. Single cell suspensions (2×10^6 cells in 0.1 ml of RPMI1640 medium plus 10% FBS) were inoculated subcutaneously (s.c.) into the rear flanks (two sites/mouse) of 6 to 7 weeks old male nude mice (Charles River, Wilmington, Mass.). For protocol A, mice were randomly divided into two groups (5 animals each). On next day after inoculation, one group of animals received i.p. injection of LiCl at a daily dose of 2 mg/kg body weight. LiCl was dissolved in PBS. The control groups of animals received PBS alone in the same volume. Xenograft development and growth were monitored for 8 weeks. The tumor dimensions were measured twice a week. The tumor volume was calculated by the formula of L×W×H×0.5236 (Miyake 2001). At the end of treatment, xenograft tumors were extirpated, and the final tumor size and weight, as well as animal weight were measured. For protocol B, treatment began until tumor became palpable or 50 mm^3 in size, and LiCl or PBS was injected (5 animals each group) as above for a two-week course. Tumor size and weight were measured at the end of treatment. For BrdU in vivo labeling, the animals were injected i.p. with 0.5 ml of a 10-mM BrdU solution (Invitrogen) 2 hours before sacrifice. For experiments involving LNCaP-BclxL SB216763 subline cells (Liao 2005) were inoculated as above, and SB216763 treatment was started two weeks later when palpable xenografts were established. […] Tumor growth was monitored as discussed herein. […]
In protocol B, animals were treated with LiCl at 2 mg/kg for a two-week course when PC-3 xenografts were palpable or about […] in size. Tumor weight was measured at the endpoint of treatment and was compared between LiCl-treated and PBS control groups.
Next, the DNA synthesis associated with LiCl-induced tumor suppression in vivo was also investigated. DNA synthesis was measured by an in vivo BrdU incorporation assay. Meanwhile, apoptotic events, if any, were detected using TUNEL assay. […]

[1] = LiCl in full culture media 18 hours, down-regulation
[2] = LiCl in full culture media 18 hours, up-regulation
[3] = protocol A, end of 8-week treatment

With `[Cl-].[Li+]` [LiCl, Lithium chloride] the “fold change, Cyclin A2 (203418_at)” value (LNCaP cells; [1]) was −4.19, the “fold change, Cyclin E2 (205034_at)” value (LNCaP cells; [1]) was −2.99 and the “fold change, Cyclin E2 (211814_s_at)” value (LNCaP cells; [1]) was −2.18. For the same compound, the “fold change, cdc6 (203967_at)” value (LNCaP cells; [1]) was −3.47, the “fold change, cdc6 (203968_s_at)” value (LNCaP cells; [1]) was −3 and the “fold change, cdc25c (205167_s_at)” value (LNCaP cells; [1]) was −2.74. The “fold change, cdc25c (217010_s_at)” value (LNCaP cells; [1]) was −5.99, the “fold change, cyclin B2 (202705_at)” value (LNCaP cells; [1]) was −1.4 and the “fold change, p27KIP1 (209112_at)” value (LNCaP cells; [1]) was −1.17. The “fold change, cyclin D1 (203665_at)” value (LNCaP cells; [2]) was 2.07, the “fold change, cyclin D1 (208712_at)” value (LNCaP cells; [2]) was 1.84 and the “fold change, cyclin G2 (202770_s_at)” value (LNCaP cells; [2]) was 1.87. The “fold change, p21CIP1 (202284_s_at)” value (LNCaP cells; [2]) was 5.7, the “fold change, p57KIP2 (213348_at)” value (LNCaP cells; [2]) was 1.79 and the “microarray expression of cyclin D1” value (LNCaP cells; LiCl treatment) was “slight increase”. For the same compound, the “microarray expression of other cell cycle related proteins (cyclin B, cdc2, p27KIP1, p57KIP2)” value (LNCaP cells; LiCl treatment) was “No significant changes”, the “treatment signal, p57KIP2 (213348_at)” value (LNCaP cells; LiCl-treated, control signal 137.6) was 246.4 and the “treatment signal, cdc25c (217010_s_at)” value (LNCaP cells; LiCl-treated, control signal 207.8) was 34.7. For the same compound, the “treatment signal, cyclin D1 (203665_at)” value (LNCaP cells; LiCl-treated, control signal 294.7) was 609.3, the “treatment signal, cyclin G2 (202770_s_at)” value (LNCaP cells; LiCl-treated, control signal 325.3) was 606.9 and the “treatment signal, p21CIP1 (202284_s_at)” value (LNCaP cells; LiCl-treated, control signal 430.9) was 2457.2. For the same compound, the “treatment signal, cdc25c (205167_s_at)” value (LNCaP cells; LiCl-treated, control signal 442.3) was 161.2, the “treatment signal, Cyclin E2 (211814_s_at)” value (LNCaP cells; LiCl-treated, control signal 852.7) was 391.2 and the “treatment signal, cyclin D1 (208712_at)” value (LNCaP cells; LiCl-treated, control signal 853.9) was 1568.2. For the same compound, the “treatment signal, cdc6 (203968_s_at)” value (LNCaP cells; LiCl-treated, control signal 1132.5) was 377.9, the “treatment signal, cdc6 (203967_at)” value (LNCaP cells; LiCl-treated, control signal 1136) was 327 and the “treatment signal, Cyclin E2 (205034_at)” value (LNCaP cells; LiCl-treated, control signal 1268.1) was 423.8. For the same compound, the “treatment signal, p27KIP1 (209112_at)” value (LNCaP cells; LiCl-treated, control signal 1365.8) was 1171.7, the “treatment signal, Cyclin A2 (203418_at)” value (LNCaP cells; LiCl-treated, control signal 1529.8) was 364.7 and the “treatment signal, cyclin B2 (202705_at)” value (LNCaP cells; LiCl-treated, control signal 2379.1) was 1693.9. For the same compound, the “animal body weight and daily activities, treatment vs control” value (AR-null PC-3 xenografts; nude mice) was “no significant difference”, the “abnormality of daily activities / side effects” value (AR-null PC-3 xenografts; nude mice, both protocols A and B) was “no obvious abnormality of daily activities or any sign of side effect” and the “xenograft development, time after inoculation” value (AR-null PC-3 xenografts; protocol A, PBS control around 4 weeks) was 6-7 weeks. The “tumor volume vs PBS control” value (AR-null PC-3 xenografts; [3]) was “significant reduction”, the “tumor weight vs PBS control” value (AR-null PC-3 xenografts; [3]) was “significant reduction” and the “TUNEL staining (apoptotic events) in xenografts, LiCl vs PBS” value (PC-3 xenografts; LiCl 2 mg/kg) was “did not show any difference”. For the same compound, the “BrdU labeling in xenografts vs PBS control” value (PC-3 xenografts; in vivo BrdU incorporation, BrdU injected two hours before sacrifice) was “significantly reduced” and the “tumor weight vs PBS control” value (PC-3 xenografts; protocol B, LiCl 2 mg/kg, two-week course on palpable xenografts) was “significantly reduced”.
